EP1190034B1, “BLEACH ACTIVATOR BASED ON INULIN” (Coöperatie Cosun U.A., priority 1999, dated 2001)

How the values were obtained:
[1] = Solubility in water; type: physicochemical
[2] = Bleach activator test procedure (peracetic acid liberated, iodometric titration); details: hydrogen peroxide, 30 °C, pH 11.6, 4 minutes, correction factor 1.10
Method: The bleach activator property is determined on the basis of the quantity of peracetic acid that can be liberated from the product. […] The best characteristics are found when the acylation is carried out in water at controlled pH (Table 1).
Mix the following solutions: • 15 ml 0.6% hydrogen peroxide solution • 10 ml saturated sodium pyrophosphate solution • 10 ml 0.05% EDTA solution. • Make up to 100 ml with demineralised water and heat to 30 °C. • Add the heated mixture to an accurately weighed amount (75 - 90 mg) of bleach activator in a 600 ml glass beaker. • Adjust the pH to 11.6 with 0.1 M NaOH solution. • Precisely 4 minutes after the first addition add 30 ml 0.1% catalase solution. • Adjust the pH to 10.5 with 0.5 M sulphuric acid solution and cool the solution to 0 - 3 °C. • Precisely 6 minutes after the first addition add 15 ml 100% acetic acid solution and 15 ml 10% potassium iodide solution. • Titrate the liberated iodine against a 0.1 M thiosulphate solution. The mol% peracetic acid liberated from the bleach activator can be calculated from the quantity of thiosulphate solution required, 2 mmol thiosulphate corresponding to 1 mmol peracetic acid formed. The determinations were corrected for the loss of peracetic acid during the measurement. The correction factor for this loss is 1.10.

CC(=O)N(CCN(C(C)=O)C(C)=O)C(C)=O [TAED, tetraacetylethylenediamine]
Solubility (%) [1]: 0.1% | Peracetate formed (mol%) ([2]; 100 x number of mols of peracetate formed / total number of mols of acetyl groups in product): 45 mol% | mol peracetate/ kg product [2]: 7.9 mol peracetate/ kg product
